# Measurements reported in patent US7381731B2, “Pharmaceutical composition comprising citrulline” (Angiogenix, Inc., priority 1994, dated 2008).
# Key:
# y^+ transporter = experiment: y+ transport of [3H]-LA in cells exposed to NOS agonists or NO donors, sodium-free uptake buffer; format: cell-based, bovine; details: for increase of [3H]-LA uptake: Ach 5 μM; for maximum inhibition of y+ transport: FIG. 16; for inhibition of L-arginine transport: data not shown; for increase of y+ transport of L-arginine / increase of y+ transporter activity from control: SP 1 μM
# Experimental: Effect of NOS agonists on cellular uptake of LA.
# Effect of NO donors on cellular uptake of LA.
# In order to confirm whether the reduction in cellular uptake of [^3H]-LA was due to NO released from SNAP, experiments were performed using another NO donor, DPTA-NONOate. Unlike SNAP, which donates large amounts of NO over a short time period (t1/2˜10 minutes), the use of DPTA-NONOate allows for a slower (t1/2˜5 hours), more sustained release of NO that is constant over time.
# [1] = tested on: cultured bovine aortic EC; experiment: DOX as NOS agonist: NO production by oxyhemoglobin/methemoglobin conversion and NO sensitive electrode; format: cell-based
# Experimental: In fact, a wide variety of vasoactive agents (e.g., bradykinin, muscarinic agonists and growth factors) which increase tPA levels are also agonists of nitric oxide synthase (NOS). DOX activity as a NOS agonist was investigated in cultured bovine aortic EC using two methods to assess NO production: conversion of oxyhemoglobin to methamoglobin and a NO sensitive electrode.
# For all experiments described herein, human coronary artery endothelial cells (passage 3-5-Clonetics) were maintained at 37°, […] and 5% CO2 in Medium 199 (M199) supplemented with 5% fetal bovine serum (FBS, Hyclone), 10% iron supplemented FBS (Hyclone), thymidine ([…]), penicillin G (100 U mL^−1) and streptomycin (100 μmL^−1). […] Acetylcholine, an eNOS agonist, was used in all experiments as the positive control at concentrations of 10^−7 and 10^−6 M.
# Nitric Oxide Measurements. Methemoglobin—The effect of DOX on NO production in EC was determined using a photometric assay for conversion of oxyhemoglobin to methemoglobin. […] Perfusate is then directed into a flow-through cuvette in a dual wavelength spectrophotometer and change in absorbency (415/405 nm) is measured. Experimental stimulation was carried out by 3 min infusion periods of DOX added to buffer perfusion to yield final concentrations of 10^−7 and 10^−6 M. For analysis, we determined the area under the curve for the change in absorbency response/min caused by DOX assuming a one to one correspondence for NO and metHb production, the known stoichiometric balance for this reaction. NO production was measured with a NO meter connected to a polargraphic NO electrode as previously described. The NO sensor probe will be inserted vertically into 24-well plates containing confluent EC such that the tip of the electrode is submerged 2 mm under the surface of medium (above −1 ml). The reaction was initiated when desired concentrations of DOX are added to the well. Calibrations were performed with S-nitroso-acetyl-penicillamine.
# [2] = tested on: bovine aortic endothelial cells (BAEC); experiment: Superoxide anion (O2*—) formation in BAEC; format: cell-based; details: for inhibition of O2*— production induced by A-23187: A-23187 1 μM; for inhibition of O2*— production induced by A-23187 / reduction of O2*— induced by SP: concurrent treatment 5×10^−4M; for reduction of O2*— induced by SP: SP 1 μM; for prevention of basal production of O2*—: supplementation 5×10^−4M; for prevention of basal production of O2*— / increase of O2*— production above basal levels: 60 minute period; for increase of O2*— production above basal levels: 1 μM
# Description: Cellular superoxide anion formation—Effect of NOS agonists on cellular superoxide anion formation.
# [3] = tested on: bovine aortic endothelial cells (BAEC); experiment: NO production by endothelial cells on beads, photometric oxyhemoglobin to methemoglobin assay; format: cell-based
# Description: NO oxidize; oxyhemoglobin (HbO2) to methemoglobin (metHb) in the following reaction HbO2+NO−metHb+NO3. The amount of NO produced by endothelial cells was quantified by measuring the change in absorbance as HbO2 oxidizes to metHb. Oxyhemoglobin has a absorbance peak at 415 nm, while methb has a 406 nm absorbance peak. By subtracting the absorbance of metHb from HbO2, the concentration of NO can be assessed. The general method was patterned after that of Feelisch et al., (Biochem. and Biophy. Res. Comm. 1991; 180, Nc I:286-293).
# The effects of pravastatin on activity of endothelial cells in producing NO were compared with those of actetylcholine, which is known to specifically stimulate NO production by NOS activity.
compound,measurement,setting,value
CC(=O)OCC[N+](C)(C)C [acetylcholine],increase of [3H]-LA uptake,y^+ transporter; 2 minute exposure,22%
same,increase of [3H]-LA uptake,y^+ transporter; 15 minute (maximum),27%
same,increase of [3H]-LA uptake,y^+ transporter; 30 minutes,16%
same,increase of [3H]-LA uptake,y^+ transporter; 60 minutes,15.5%
"NCCCN(CCCN)/[N+]([O-])=N/O [DPTA-NONOate, dipropylenetriamine NONOate]",maximum inhibition of y+ transport,"y^+ transporter; 0.01 μM, 2 hour exposure",20%
same,effect on y+ system,"y^+ transporter; 1 μM DPTA-NONOate (2 μM NO), 15 and 30 min",no significant effect
same,inhibition of L-arginine transport,"y^+ transporter; 1 μM DPTA-NONOate (2 μM NO), 1 hour exposure",22%
same,inhibition of L-arginine transport,"y^+ transporter; 1 μM DPTA-NONOate (2 μM NO), 2 hour exposure",24%
same,inhibition of L-arginine transport,"y^+ transporter; 1 μM DPTA-NONOate (2 μM NO), 4 hour exposure",29%
same,maximum inhibition of y+ transport,"y^+ transporter; 1 μM, 2 hour exposure",24%
same,maximum inhibition of y+ transport,"y^+ transporter; 10 μM, 2 hour exposure",44%
N=C(N)NCCC[C@H](N)C(=O)O [L-arginine],accentuation of NO responses to ACH,[1]; supplemental L-arginine,72%
same,accentuation of NO responses to DOX,[1]; supplemental L-arginine 5×10^−4 M,65%
same,inhibition of O2*— production induced by A-23187,[2],60%
same,reduction of O2*— induced by SP,[2],51%
same,prevention of basal production of O2*—,[2],not
same,acetylcholine-elicited production of NO,[3]; L-NAME buffer replaced with buffer containing L-arginine 10^−3 M,returned to control levels
same,NO production in response to pravastatin,[3]; subsequent perfusion with buffer containing L-arginine 10^−3 M,return in NO production to a level above the amount induced by the Pravastatin in control (basis) buffer
"CC(=O)N[C@@H](C(=O)O)C(C)(C)SN=O (racemic) [SNAP, s-nitroso-acetyl-penicillamin]",increase of activity of the y+ transporter,"y^+ transporter; 200 μM SNAP (0.4 μM NO), ten minutes of exposure",37%
same,elevation of activity of the y+ transporter,"y^+ transporter; 200 μM SNAP, 30 minute exposure",not seen
same,reduction of uptake of [3H]-LA,"y^+ transporter; 200 μM SNAP, 1 hour",22%
same,reduction of uptake of [3H]-LA,"y^+ transporter; 200 μM SNAP, 2 hour exposure",46%
same,reduction of uptake of [3H]-LA,"y^+ transporter; 200 μM SNAP, 3 hour exposure",45%
same,reduction of uptake of [3H]-LA,"y^+ transporter; 200 μM SNAP, 5 hour exposure",36%
CC[C@H](C)C(=O)O[C@H]1C[C@H](O)C=C2C=C[C@H](C)[C@H](CC[C@@H](O)C[C@@H](O)CC(=O)O)[C@H]21 [pravastatin],increment in NO response to the 10^−5 M concentration,"[3]; pravastatin 10^−5 M, larger than that of acetylcholine",~3 X
"COc1cc2nc(N3CCN(C(=O)C4COc5ccccc5O4)CC3)nc(N)c2cc1OC (centres unmarked) [DOX, Doxazosin]",increase in NO production,"[1]; DOX 10^−7-10^−5 M, dose-related",64-145%
"COC(=O)[C@@H](N)CCCNC(=N)N[N+](=O)[O-] [L-NAME, n-ω-nitro-L-arginine methyl ester]",block of increase in NO to ACH,"[1]; ACH 10^−6 M, prior L-NAME",86%
same,block of increase in NO to DOX,"[1]; DOX 10^−6 M, prior L-NAME 5×10^−4 M",72%
same,inhibition of O2*— production induced by A-23187,[2],58%
same,reduction of O2*— induced by SP,[2],81%
same,prevention of basal production of O2*—,[2],100%
same,reduction of acetylcholine-induced production of NO,[3]; buffer containing L-NAME 10^−3 M,80%
same,NO production in response to pravastatin,[3]; superfusion with L-NAME 10^−3 M,blunted
substance P [SP],increase of y+ transport of L-arginine,y^+ transporter; 15-minutes exposure,24%
same,increase of y+ transport of L-arginine,y^+ transporter; 30 minutes,24%
same,increase of y+ transport of L-arginine,y^+ transporter; 60 minutes,21%
same,increase of y+ transporter activity from control,y^+ transporter; 2 hour exposure,34%
same,increase of y+ transporter activity from control,y^+ transporter; 3 hour exposure,27%
same,increase of y+ transporter activity from control,y^+ transporter; 5 hour exposure,21%
same,increase of O2*— production above basal levels,[2],3.5 fold
CNc1ccc2oc(C[C@H]3O[C@@]4(CC[C@H]3C)O[C@H]([C@H](C)C(=O)c3ccc[nH]3)[C@H](C)C[C@H]4C)nc2c1C(=O)O [A-23187],increase of O2*— production above basal levels,[2],2.5 fold
